Reference: patent US7033593B2, “Immunogen comprising an HIV envelope protein, a ligand and H2 peptide” (priority 2000, dated 2006)
Entries after “also recorded” stand apart in the source; their conditions may differ. Where two headings read alike, the source gives them in different places. No end group written: not given here.

Assays:
sCD4 = biological target: T1, sCD4 (Homo sapiens, UniProt P01730); assay type: binding; conditions: SPR
T1 construct: Soluble CD4 (sCD4) was produced by Progenics, Tarrytown, N.Y; purchased Progenics (provided by the Division of AIDS, NIAID, NIH)

A32-gp120 (89.6 gp120) = A32-gp120 (89.6 gp120) (Human immunodeficiency virus type 1 group M subtype B, UniProt Q73372); conditions: DP178 pre-incubated with peptide
Text: FIGS. 31A–31F. […] Data are representative of 3 separate experiments performed. Data presented for C4-V389.6P and C4-V3MN are taken from two separate experiments. (FIG. 31F) Schematic.
The gp120 C4 region is centrally located within the CCR5 binding site in the β20–β21 strands of the gp120 bridging sheet (Wyatt et al, J. Virol. 69:5723–5733 (1995)).

[1] = system: HIV-1 induced syncytia formation; assay: HIV-1 induced syncytia formation; assay type: cell-based; conditions: 50–200 μg/ml
[2] = biological target: cleaved gp140 oligomers (HIV 89.6) (Human immunodeficiency virus type 1 group M subtype B, UniProt Q73372); assay: biochemical; assay type: binding
cleaved gp140 oligomers (HIV 89.6), sequence (Q73372 32-681): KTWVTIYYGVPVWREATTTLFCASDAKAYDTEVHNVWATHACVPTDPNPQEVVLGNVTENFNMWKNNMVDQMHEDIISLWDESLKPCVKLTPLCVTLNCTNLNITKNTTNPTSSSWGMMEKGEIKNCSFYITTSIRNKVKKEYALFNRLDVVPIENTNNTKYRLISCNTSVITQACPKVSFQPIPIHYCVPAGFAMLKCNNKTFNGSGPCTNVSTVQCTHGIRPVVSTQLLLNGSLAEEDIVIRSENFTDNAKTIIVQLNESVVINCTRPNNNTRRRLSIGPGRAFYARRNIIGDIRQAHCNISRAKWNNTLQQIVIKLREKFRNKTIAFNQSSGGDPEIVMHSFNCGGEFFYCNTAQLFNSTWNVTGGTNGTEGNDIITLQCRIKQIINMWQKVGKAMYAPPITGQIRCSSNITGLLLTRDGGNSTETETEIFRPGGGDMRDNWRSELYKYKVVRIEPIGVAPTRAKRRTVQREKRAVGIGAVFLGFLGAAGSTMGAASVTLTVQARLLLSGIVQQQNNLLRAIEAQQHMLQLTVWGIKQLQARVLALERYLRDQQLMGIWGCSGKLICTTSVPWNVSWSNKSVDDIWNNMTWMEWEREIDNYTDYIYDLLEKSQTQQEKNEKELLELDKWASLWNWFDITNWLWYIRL

[3] = system: CD4-gp140 complex (89.6 gp140 oligomers); conditions: on CD4-gp140 complex
Description: FIG. 10C. CD4-gp140 complexes (indicated by arrow) were first formed by injecting soluble 89.6 gp140 oligomers over a CD4-immobilized surface. Then the CCR5 N-terminal peptide (D1) was injected to monitor its binding to CD4-gp140 complexes.
FIG. 10D. An overlay of the binding curves of CCR5 N-terminal peptide, D1, binding to 89.6 gp140 oligomers in the presence and absence of CD4. […] To ensure that all gp140 molecules were bound to CD4, cleaved gp140 proteins were captured on a CD4 immobilized sensor surface (RU=530), and soluble 89.6 gp140 proteins were directly immobilized (RU=3300) on an adjacent flow cell of the same sensor chip.
(§1) SPR biosensor measurements were determined on a BIACORE 3000 (BIACORE Inc., Uppsala, Sweden) instrument. […] Binding of proteins and peptides was monitored in real-time at 25° C. and with a continuous flow of PBS, pH 7.4 at […]. Analyte (proteins and peptides) were removed and the sensor surfaces were regenerated following each cycle of binding by single or duplicate […] of regeneration solution (10 mM glycine-HCl, pH 2.5 or 10 mM NaOH).
(§2) All analyses were performed using the non-linear fit method of O'Shannessy et al. (O'Shannessy et al, Anal. Biochem. 205:132–136 (1992)) and the BIAevaluation 3.0 software (BIACORE Inc). Rate and equilibrium constants were derived from curve fitting to the Langmuir equation for a simple bimolecular interaction (A+B=AB).

HIV-1 Env 89.6 gp120 = HIV-1 Env 89.6 gp120 (Human immunodeficiency virus type 1 group M subtype B, UniProt Q73372); assay: biochemical; assay type: binding, HIV-1 89.6
HIV-1 Env 89.6 gp120, sequence (Q73372 32-508): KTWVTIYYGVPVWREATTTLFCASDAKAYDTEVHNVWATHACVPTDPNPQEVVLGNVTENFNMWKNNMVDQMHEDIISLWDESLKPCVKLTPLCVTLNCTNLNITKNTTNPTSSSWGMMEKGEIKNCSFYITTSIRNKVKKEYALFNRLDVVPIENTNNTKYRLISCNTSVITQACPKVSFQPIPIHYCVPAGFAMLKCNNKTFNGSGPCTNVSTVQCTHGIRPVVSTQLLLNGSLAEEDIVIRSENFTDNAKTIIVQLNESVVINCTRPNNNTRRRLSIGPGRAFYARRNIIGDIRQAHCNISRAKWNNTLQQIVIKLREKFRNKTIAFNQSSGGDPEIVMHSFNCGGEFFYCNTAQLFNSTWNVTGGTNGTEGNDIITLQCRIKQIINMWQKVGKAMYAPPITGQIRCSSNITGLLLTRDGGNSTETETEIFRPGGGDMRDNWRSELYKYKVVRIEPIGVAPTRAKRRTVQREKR

[4] = system: sCD4-gp140 (HIV 89.6 gp140); assay: SPR binding of HR-2 peptides to sCD4-gp140 complex; conditions: SPR
Description: as §1, §2
(§3) A blank chip served as an in-line reference surface for subtraction of non-specific binding and bulk responses.
(§4) Surface Plasmon Resonance Biosensor Measurements. SPR biosensor measurements were determined on a BIACORE 3000 (BIACORE Inc., Uppsala, Sweden) instrument. […] A blank in-line reference surface (activated and de-activated for amine coupling) was used to subtract non-specific or bulk responses. Binding of proteins and peptides (biotinylated or free DP178, T649Q26L, DP178-scrambled) was monitored in real-time at 25° C. with a continuous flow of PBS (150 mM NaCl, 0.005% surfactant p20), pH 7.4 at 10–30 μl/min. Analyte (proteins and peptides) were removed and the sensor surfaces were regenerated following each cycle of binding by single or duplicate 5–10 μl pulses of regeneration solution (10 mM glycine-HCl, pH 2.5 or 10 mM NaOH).

[5] = system: T8-gp140 (HIV 89.6 gp140); conditions: SPR
T8-gp140 (HIV 89.6 gp140), sequence (Q73372 32-508): as above
T8-gp140 (HIV 89.6 gp140), sequence (Q73372 509-680): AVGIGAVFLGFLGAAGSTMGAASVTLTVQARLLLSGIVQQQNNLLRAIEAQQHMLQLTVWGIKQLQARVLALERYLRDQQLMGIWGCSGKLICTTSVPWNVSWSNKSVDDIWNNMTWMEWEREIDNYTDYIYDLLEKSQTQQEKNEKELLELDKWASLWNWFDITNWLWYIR
Description: FIG. 14A. […] FIGS. 14B and 14C. […] After stabilization of gp140 capture, either the 19b (anti-gp120 V3) or 2F5 (anti-gp41) antibodies (300 μg/ml) were injected to assess the relative amounts of gp120 and gp41 on both surfaces. FIGS. 14D–14F.
as §3, §4

[6] = biological target: T8-gp120 (HIV 89.6 gp120) (Human immunodeficiency virus type 1 group M subtype B, UniProt Q73372); assay type: binding; conditions: SPR
T8-gp120 (HIV 89.6 gp120), sequence (Q73372 32-508): as the sequence (Q73372 32-508) above

[7] = biological target: sCD4-gp120 (HIV 89.6 gp120) (Human immunodeficiency virus type 1 group M subtype B, UniProt Q73372); assay type: binding
sCD4-gp120 (HIV 89.6 gp120), sequence (Q73372 32-508): as above

[8] = biological target: sCD4 ligated gp120 in the context of membrane bound envelope; conditions: Hoffman et al 2000; read-out: affinity; cited from earlier work

89.6 gp120: soluble gp120 envelope protein of HIV 89.6 primary isolate (Clade B)
off-rate (kd) (sCD4; immobilized CD4): 0.00011 s⁻¹ | off-rate (sCD4; immobilized sCD4, preliminary studies): 1.1×10^−4 s^1 | binding to sCD4 (in words) (sCD4; listed as HIV 89.6 gp120): most stable binding to sCD4 | binding to sCD4 (in words) (sCD4; listed as HIV89.6 gp120): bound sCD4 most avidly

89.6 gp140: HIV 89.6 gp140 envelope, about 50:50 cleaved and uncleaved
binding to sCD4 (in words) (sCD4): bound sCD4 well

IKQIINMWQKVGKAMYAPPIS [C4]
mean % blocking of DP178 binding to 89.6 gp120 (A32-gp120 (89.6 gp120); n=3): 27% | effect on DP178 inhibition of syncytia formation (in words) [1]: can reverse DP178 inhibition

KQIINMWQEVGKAMYACTRPNYNKRKRIHIGPGRAFYTTK [C4-V3MN]
blocking of DP178 binding (in words) (A32-gp120 (89.6 gp120)): strong blocking

KQIINMWQEVGKAMYATRPNNNTRERLSIGPGRAFYARR [C4-V389.6]
blocking of DP178 binding (in words) (A32-gp120 (89.6 gp120)): strong blocking

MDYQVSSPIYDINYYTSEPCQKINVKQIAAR [CCR5-D1]
Kd [2]: 1000 nM | binding to cleaved gp140 (in words) ([2]; absence of CD4): Low levels of constitutive binding | kd (off-rate) ([2]; absence of CD4): 0.01 s⁻¹ | ka [3]: 9000 M⁻¹ s⁻¹ | kd [3]: 0.00256 s⁻¹ | Kd ([3]; read-out: apparent Kd): 280 nM

NNLLRAIEAQQHLLQLTVWGIKQLQARILAVERYLKDQ [DP107]
binding to gp120 bound to CD4 or A32 (in words) (HIV-1 Env 89.6 gp120): no binding was observed

TRPNNNTRERLSIGPGRAFYARR [V3]
blocking of DP178 binding (in words) (A32-gp120 (89.6 gp120)): no significant blocking

WMEWDREINNYTSLIHSLIEESQNQLEKNEQELLEL [T649Q26L]
binding to sCD4-gp140 surface (in words) [4]: much higher binding; also recorded: marked binding | binding to T8-gp140 surface (in words) [5]: no binding | binding to gp120 on T8 mab surface (in words) [6]: neither HR-2 peptide bound | binding to sCD4-gp120 (in words) [7]: specifically induced by sCD4

native CCR5: native CCR5 co-receptor, literature value
Kd [8]: 500000 nM
